25 compounds from patent US20230416256A1, “SMALL MOLECULE INHIBITORS OF NF-kB INDUCING KINASE” (Janssen Pharmaceutica NV, priority 2020, published 2023) can be followed below.

Molecules are shown by their SMILES. pIC50: −log10 of the molar value. Where two headings read alike, the source gives them in different places. Where only a bound is given, the exact number is not on record here.

Usually pIC50 stands for −log10 of the IC50, conventionally taken in molar units.

For test [1], the target named is recombinant human NF-kappaB-inducing kinase (NIK/MAP3K14) (Homo sapiens, UniProt Q99558). Kind of test: Inhibition of auto-phosphorylation of recombinant human NIK/MAP3K14 activity (AlphaScreen). Type of test: biochemical. To be noted: GST-tagged NIK/MAP3K14 1 nM, 5 μM ATP, 2 h at 25° C.; average of values obtained. The protocol: Inhibition of Auto-Phosphorylation of Recombinant Human NF-kappaB-Inducing Kinase (NIK/MAP3K14) Activity (AlphaScreen®)
NIK/MAP3K14 auto-phosphorylation activity was measured using the AlphaScreen® (αscreen) format (Perkin Elmer). All compounds tested were dissolved in dimethyl sulfoxide (DMSO) and further dilutions were made in assay buffer. The final DMSO concentration was 0.7% (v/v) in assays. The assay buffer was 50 mM Tris pH 7.5 containing 1 mM EGTA (ethylene glycol tetraacetic acid), 1 mM DTT (dithiothreitol), 0.1 mM Na3VO4, 5 mM MgCl2, and 0.01% Tween® 20. The assays were carried out in 384 well Proxiplates (Perkin Elmer). The incubations consisted of the compound, 5 μM Adenosine-5′-triphosphate (ATP), and 1 nM NIK/MAP3K14. Incubations were initiated by the addition of GST-tagged NIK/MAP3K14 enzyme, carried out for 2 h at 25° C. and terminated by addition of stop buffer containing anti-phospho-IKK Ser176/180 antibody. Protein A Acceptor and Glutathione-Donor beads were added before reading using an EnVision Multilabel Plate Reader (Perkin Elmer). The signal obtained in the wells was normalized using high (full enzyme activity, 0.7% DMSO) and low controls (no enzyme activity, 0.7% DMSO, no ATP). IC50's were determined by fitting a sigmoidal curve to % inhibition of control versus Log10 compound concentration.
For orientation: In Alpha technology, singlet oxygen from a donor bead excites a nearby acceptor bead.

Test [2] relates to p-IKKα levels in L363 (NIK translocated multiple myeloma) cells. Kind of test: Effect of compounds on p-IKKα levels in L363 cells (AlphaLISA SureFire Ultra). In kind it is cell-based, human. To be noted: 10 μM MG132, 6 h, average of values obtained, read-out: Assay 2 IC50. The procedure:
Effect of Compounds on p-IKKα Levels in L363 (NIK Translocated Multiple Myeloma) Cells
All compounds tested were dissolved and serially diluted in DMSO, 1:3 dilution for 11 points in an Echo compatible plate. 100% DMSO was added to columns 12 and 24 of the plate to serve as high and low signal controls. This compound plate was used to spot 20 nL of compound or DMSO into a Greiner 384 well TC plate (781080). The final DMSO concentration was 0.3% (v/v) in cell assays. Human L363 cells (ATCC) were cultured in RPMI1640 medium supplemented with GlutaMax, non-essential amino acids, sodium pyruvate and 10% fetal bovine serum. Cells were routinely maintained at densities of […]-2×10^6 cells per mL at 37° C. in a humidified 5% CO2 atmosphere incubator. Cells were passaged twice a week splitting back to obtain the low density. The day before the assay, cells were washed twice in HBSS (Hank's Balanced Salt Solution), resuspended in Dulbecco's Modified Eagle Medium (DMEM)+0.5% IgG and protease free BSA (Jackson Immuno Research Laboratories), +/−250 ng/ml recombinant human B-cell activating factor (BAFF/BLyS/TNFSF13B) and incubated overnight at 37° C. in a humidified 5% CO2 atmosphere (bulk stimulation with or without BAFF). The next day, the cell concentration was adjusted to 1×10^7 cells/ml in DMEM+/−250 ng/ml BAFF+/10 μM MG132 and plated at […] into compound or DMSO spotted 384 well TC plates. Seeded cells were incubated at 37° C. in a humidified 5% CO2 atmosphere for 6 h. After 6 h, the plates were removed from the incubator and cell lysis was achieved by the addition of 2.5 μl 5×lysis buffer containing protease and phosphatase inhibitors, followed by shaking on a plate shaker at room temperature for 15 min. At the end of this incubation, lysed cells were sequentially treated and incubated with acceptor and donor bead mixes according to the manufacturer's protocol for a 1 plate/2-incubation suspension cell assay (AlphaLISA SureFire Ultra p-IKKa (Ser 176/180) Assay Kit (Perkin Elmer). Plates were read using an EnVision Multilabel Plate Reader (Perkin Elmer). Within an experiment, a concentration response curve for each compound was run in duplicate. The signal obtained in the test wells was normalized using high signal (BAFF stimulated cells, DMSO, MG132) and low signal (unstimulated cells, DMSO) controls. To determine the IC50, a sigmoidal curve was fitted to the plot of % inhibition versus Log10 compound concentration.

Where [3] appears, read: Homo sapiens, L-363, 6 h, 250 ng/ml BAFF stimulated.
Setting [4] is: Homo sapiens, L-363, 250 ng/ml BAFF stimulated.

Sequence of recombinant human NF-kappaB-inducing kinase (NIK/MAP3K14) (Q99558 whole entry): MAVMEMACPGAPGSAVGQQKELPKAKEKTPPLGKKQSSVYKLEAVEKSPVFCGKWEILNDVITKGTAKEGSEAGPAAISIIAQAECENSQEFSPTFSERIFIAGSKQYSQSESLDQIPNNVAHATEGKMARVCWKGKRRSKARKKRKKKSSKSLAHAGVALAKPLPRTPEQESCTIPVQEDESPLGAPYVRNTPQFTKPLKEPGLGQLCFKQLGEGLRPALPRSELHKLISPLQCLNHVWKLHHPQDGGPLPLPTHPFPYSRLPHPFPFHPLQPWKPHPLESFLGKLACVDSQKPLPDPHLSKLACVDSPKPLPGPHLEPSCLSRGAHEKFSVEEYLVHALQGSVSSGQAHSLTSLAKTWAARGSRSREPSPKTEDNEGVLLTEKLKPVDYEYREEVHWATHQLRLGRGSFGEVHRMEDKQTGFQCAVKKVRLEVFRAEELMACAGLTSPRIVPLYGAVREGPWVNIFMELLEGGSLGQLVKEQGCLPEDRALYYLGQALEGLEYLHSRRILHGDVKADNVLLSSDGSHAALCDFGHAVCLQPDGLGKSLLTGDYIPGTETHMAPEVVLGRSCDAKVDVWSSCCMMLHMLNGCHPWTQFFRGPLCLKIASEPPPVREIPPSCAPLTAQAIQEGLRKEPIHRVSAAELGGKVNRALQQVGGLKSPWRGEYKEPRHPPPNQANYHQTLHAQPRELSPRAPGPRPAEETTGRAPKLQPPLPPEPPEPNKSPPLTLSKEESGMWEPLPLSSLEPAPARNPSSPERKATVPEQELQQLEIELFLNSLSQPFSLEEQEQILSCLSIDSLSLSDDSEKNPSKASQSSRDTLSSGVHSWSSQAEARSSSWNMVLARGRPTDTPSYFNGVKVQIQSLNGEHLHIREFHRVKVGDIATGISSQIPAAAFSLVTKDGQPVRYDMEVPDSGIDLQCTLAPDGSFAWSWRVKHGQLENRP

With `O[C@@H]1C[C@@](O)(c2cccc(-c3csc(-c4c[nH]c5ncccc45)n3)c2)c2ncccc21` (single isomer, unassigned) [Example 101], the figures for the pIC50 in test [1] and in test [2] (setting [3]) were 6.30 to 7.00 and under 6.30, respectively.

Consider `O[C@H]1C[C@](O)(c2cccc(-c3csc(-c4c[nH]c5ncccc45)n3)c2)c2ncccc21` (single isomer, unassigned) [Example 102], for which the pIC50 in test [1] and in test [2] (setting [3]) was under 6.30 in each case.

Regarding `O[C@H]1C[C@@](O)(c2cccc(-c3csc(-c4c[nH]c5ncccc45)n3)c2)c2ncccc21` (single isomer, unassigned) [Example 103], the pIC50 in test [1] and in test [2] (setting [3]) was under 6.30 in each case.

For `O[C@@H]1C[C@](O)(c2cccc(-c3csc(-c4c[nH]c5ncccc45)n3)c2)c2ncccc21` (single isomer, unassigned) [Example 104], the pIC50 in test [1] and in test [2] (setting [3]) was under 6.30 each time.

With `C[C@]1(O)C[C@](O)(c2cccc(-c3csc(-c4c[nH]c5ncccc45)n3)c2)c2ncccc21` (single isomer, unassigned) [Example 105], the negative logarithm of the IC50 (pIC50) in test [1] and in test [2] (setting [3]) was under 6.30 in each case.

Turning to `C[C@@]1(O)C[C@](O)(c2cccc(-c3csc(-c4c[nH]c5ncccc45)n3)c2)c2ncccc21` (single isomer, unassigned) [Example 107], the negative-log IC50 (pIC50) in test [1] and in test [2] (setting [3]) was under 6.30 each time.

For the compound `C[C@]1(O)C[C@@](O)(c2cccc(-c3csc(-c4c[nH]c5ncccc45)n3)c2)c2ncccc21` (single isomer, unassigned) [Example 108], the results for the negative logarithm of the IC50 (pIC50) in test [1] and in test [2] (setting [3]) were 6.30 to 7.00 and under 6.30, respectively.

Consider `CN1CC[C@@](O)(c2cccc(-n3ncc(-c4c[nH]c5ncccc45)n3)c2)C1=O` (single isomer, unassigned) [Example 109], for which the pIC50 was at least 7.00 in test [1] and under 6.30 in test [2] (setting [4]).

Turning to `CN1CC[C@@](O)(c2cccc(-c3csc(-n4ccc5ncccc54)n3)c2)C1=O` (single isomer, unassigned) [Example 111], the pIC50 is 6.30 to 7.00 in test [1] and under 6.30 in test [2] (setting [4]).

For `CN1CC[C@@](O)(c2cccc(-n3cnc(-c4c[nH]c5ncccc45)n3)c2)C1=O` (single isomer, unassigned) [Example 121], the negative logarithm of the IC50 (pIC50) is at least 7.00 in test [1] and under 6.30 in test [2] (setting [4]).

In the case of `CN1CC[C@@](O)(c2cccc(-n3ccc(-c4c[nH]c5ncccc45)n3)c2)C1=O` (single isomer, unassigned) [Example 122], the pIC50 is at least 7.00 in test [1] and under 6.30 in test [2] (setting [4]).

With `CN1CC[C@@](O)(c2cccc(-n3cnc(-c4c[nH]c5ncccc45)c3)c2)C1=O` (single isomer, unassigned) [Example 124], the pIC50 in test [1] and in test [2] (setting [4]) was under 6.30 each time.

Turning to `Cc1noc2c1CC[C@@]2(O)c1cccc(-c2csc(-c3c[nH]c4ncccc34)n2)c1` (single isomer, unassigned) [Example 126], the negative-log IC50 (pIC50) in test [1] was at least 7.00; in test [2] (setting [3]), under 6.30.

Take `Cc1cnc2[nH]cc(-c3nc(-c4cccc([C@]5(O)CCN(C)C5=O)c4)cs3)c2c1` [Example 7, (R)-3-Hydroxy-1-methyl-3-(3-(2-(5-methyl-1H-pyrrolo[2,3-b]pyridin-3-yl)thiazol-4-yl)phenyl)pyrrolidin-2-one]: the pIC50 is at least 7.00 in test [1] and 6.30 to 7.00 in test [2] (setting [4]).

`CN1CC[C@@](O)(c2cccc(-c3nc(-c4c[nH]c5ncccc45)cs3)c2)C1=O` [Example 8, (R)-3-(3-(4-(1H-Pyrrolo[2,3-b]pyridin-3-yl)thiazol-2-yl)phenyl)-3-hydroxy-1-methylpyrrolidin-2-one]: the negative logarithm of the IC50 (pIC50) in test [1] was at least 7.00; in test [2] (setting [4]), under 6.30.

Turning to `CN1CC[C@@](O)(c2cccc(-c3ncc(-c4c[nH]c5ncccc45)s3)c2)C1=O` [Example 9, (R)-3-(3-(5-(1H-Pyrrolo[2,3-b]pyridin-3-yl)thiazol-2-yl)phenyl)-3-hydroxy-1-methylpyrrolidin-2-one], the pIC50 was 6.30 to 7.00 in test [1] and under 6.30 in test [2] (setting [4]).

Consider `O[C@@]1(c2cccc(-c3csc(-c4c[nH]c5ncccc45)n3)c2)CCn2ccnc21` [Example 10, (R)-7-(3-(2-(1H-Pyrrolo[2,3-b]pyridin-3-yl)thiazol-4-yl)phenyl)-6,7-dihydro-5H-pyrrolo[1,2-a]imidazol-7-ol], for which the pIC50 in test [1] and in test [2] (setting [3]) was at least 7.00 in each case.

With `O[C@@]1(c2cccc(-c3nc(-c4c[nH]c5nccnc45)cs3)c2)CCn2ccnc21` [Example 11, (R)-7-(3-(4-(5H-Pyrrolo[2,3-b]pyrazin-7-yl)thiazol-2-yl)phenyl)-6,7-dihydro-5H-pyrrolo[1,2-a]imidazol-7-ol], the pIC50 in test [1] and in test [2] (setting [3]) was at least 7.00 each time.

As to `O[C@]1(c2cccc(-c3nc(-c4c[nH]c5nccnc45)cs3)c2)CCn2ccnc21` [Example 12, (S)-7-(3-(4-(5H-Pyrrolo[2,3-b]pyrazin-7-yl)thiazol-2-yl)phenyl)-6,7-dihydro-5H-pyrrolo[1,2-a]imidazol-7-ol], the figures for the pIC50 in test [1] and in test [2] (setting [3]) were 6.30 to 7.00 and under 6.30, respectively.

In the case of `O[C@@]1(c2cccc(-c3csc(-c4c[nH]c5nccnc45)n3)c2)C=Cn2ccnc21` [Example 13, (R)-7-(3-(2-(5H-Pyrrolo[2,3-b]pyrazin-7-yl)thiazol-4-yl)phenyl)-7H-pyrrolo[1,2-a]imidazol-7-ol], the negative-log IC50 (pIC50) was at least 7.00 in test [1] and under 6.30 in test [2] (setting [3]).

`O[C@]1(c2cccc(-c3csc(-c4c[nH]c5nccnc45)n3)c2)C=Cn2ccnc21` [Example 14, (S)-7-(3-(2-(5H-Pyrrolo[2,3-b]pyrazin-7-yl)thiazol-4-yl)phenyl)-7H-pyrrolo[1,2-a]imidazol-7-ol]: the negative logarithm of the IC50 (pIC50) in test [1] and in test [2] (setting [3]) was under 6.30 each time.

Consider `O[C@@]1(c2cccc(-c3nc(-c4c[nH]c5ncccc45)cs3)c2)CCn2ccnc21` [Example 15, (R)-7-(3-(4-(1H-Pyrrolo[2,3-b]pyridin-3-yl)thiazol-2-yl)phenyl)-6,7-dihydro-5H-pyrrolo[1,2-a]imidazol-7-ol], for which the results for the pIC50 in test [1] and in test [2] (setting [3]) were at least 7.00 and 6.30 to 7.00, respectively.

On to `O[C@@]1(c2cccc(-c3csc(-c4c[nH]c5ncccc45)n3)c2)COc2cccnc21` [Example 16, (R)-3-(3-(2-(1H-Pyrrolo[2,3-b]pyridin-3-yl)thiazol-4-yl)phenyl)-2,3-dihydrofuro[3,2-b]pyridin-3-ol], for which the pIC50 was at least 7.00 in test [1] and 6.30 to 7.00 in test [2] (250 ng/ml BAFF stimulated).

In the case of `O[C@@]1(c2cccc(-c3csc(-c4c[nH]c5nccnc45)n3)c2)COc2cccnc21` [Example 17, (R)-3-(3-(2-(5H-Pyrrolo[2,3-b]pyrazin-7-yl)thiazol-4-yl)phenyl)-2,3-dihydrofuro[3,2-b]pyridin-3-ol], the pIC50 in test [1] and in test [2] (250 ng/ml BAFF stimulated) was at least 7.00 throughout.

On to `[2H]c1[nH]c2nccnc2c1-c1nc(-c2cccc([C@@]3(O)CCn4ccnc43)c2)cs1` [Example 18, (S)-7-(3-(2-(5H-Pyrrolo[2,3-b]pyrazin-7-yl-6-d)thiazol-4-yl)phenyl)-6,7-dihydro-5H-pyrrolo[1,2-a]imidazol-7-ol], for which the pIC50 in test [1] and in test [2] (setting [3]) was under 6.30 in each case.
